Test results published in ChEMBL document CHEMBL4342430, “An Agonist Radioligand for the Proinflammatory Lipid-Activated G Protein-Coupled Receptor GPR84 Providing Structural Insights” (J Med Chem, 2020).
The source made the active and inactive calls.

How the values were obtained:
Assay type in all cases: cell membranes
Rattus norvegicus [1] = organism: Rattus norvegicus; test: Displacement of [3H]PSB-1584 from GPR84 in rat brain striatum membranes measured after 6 hrs by scintillation counting method
Rattus norvegicus [2] = organism: Rattus norvegicus; test: Displacement of [3H]PSB-1584 from GPR84 in rat brain cortex membranes measured after 6 hrs by scintillation counting method
Rattus norvegicus [3] = organism: Rattus norvegicus; test: Displacement of [3H]PSB-1584 from GPR84 in rat liver membranes measured after 6 hrs by scintillation counting method
[4] = biological target: G-protein coupled receptor 84 (Mus musculus) (UniProt Q8CIM5); test: Displacement of [3H]PSB-1584 from GPR84 in mouse liver membranes measured after 6 hrs by scintillation counting method
Sequence of G-protein coupled receptor 84 (Mus musculus) (Q8CIM5 whole entry): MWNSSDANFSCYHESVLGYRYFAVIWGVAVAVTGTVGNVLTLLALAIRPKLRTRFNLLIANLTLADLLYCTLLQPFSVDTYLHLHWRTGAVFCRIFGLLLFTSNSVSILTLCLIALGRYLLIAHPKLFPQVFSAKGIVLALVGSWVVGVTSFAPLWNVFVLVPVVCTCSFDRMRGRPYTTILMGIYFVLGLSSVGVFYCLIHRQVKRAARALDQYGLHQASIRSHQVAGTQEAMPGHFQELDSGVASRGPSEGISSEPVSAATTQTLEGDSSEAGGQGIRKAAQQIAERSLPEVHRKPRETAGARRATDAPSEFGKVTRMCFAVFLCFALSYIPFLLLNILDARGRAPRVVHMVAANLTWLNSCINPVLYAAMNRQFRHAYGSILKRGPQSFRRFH

Measured: inhibition

O=c1cc(NCCc2ccc(Br)cc2)[nH]c(=O)[nH]1
active: all assays above
